We go through ten compounds from patent US11926613B2, “Kinase inhibitors for the treatment of central and peripheral nervous system disorders” (UNIVERSITY OF MIAMI, priority 2017, dated 2024).

Test [1] has as its system neurons from hippocampi of E18 rat embryos. The test is described as follows: Neurite growth length (% NTL) in cultured E18 rat hippocampal neurons, 9-point dose response, 48 hours. To be noted: Rattus norvegicus, Neuron, 48 h; for activity at 0.078 µM: 78 nM; for activity at 0.156 µM: 156 nM; for activity at 0.312 µM: 312 nM; for activity at 0.625 µM: 625 nM. The format is cell-based. The procedure, abridged: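 Dissociated E18 rat hippocampal neurons at 1500 cells/well on PDL were exposed 48 h to 9 concentrations from 20 μM down to 0.078125 μM. After PFA fixation and βIII-tubulin/Hoechst staining, ArrayScan imaging traced neurites in at least 200–300 neurons per condition to give % NTL.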

The subject of test [2] is Primary Neurons. The test is described as follows: HCS neurite outgrowth assay (High Content Screening with Primary Neurons). Conditions: Primary neuron. The format is cell-based.

For the compound `Nc1nccc(C(=O)N[C@@H]2CNC[C@H]2NC(=O)c2ccc(C(=O)c3ccccc3O)c(Cl)c2)n1` [Example A66, 2-amino-N-[(3R,4R)-4-[3-chloro-4-(2-hydroxybenzoyl)benzamido]pyrrolidin-3-yl]pyrimidine-4-carboxamide], in test [1], the activity at 0.078 µM is 113%, the activity at 0.156 µM was 107%, the activity at 0.312 µM was found to be 122% and the activity at 0.625 µM worked out at 111%. In test [1], the activity at 1.25 µM was found to be 122%, the activity at 2.5 µM is 129%, the activity at 5 µM was determined as 129% and the activity at 10 µM was found to be 145%. For the same compound, the activity at 20 µM in test [1] was 161%. In addition, the EC50 in test [2] came to 2.33 µM.
On to `O=C(N[C@@H]1CNC[C@H]1NC(=O)c1ccc(C(=O)c2ccccc2O)c(Cl)c1)c1ccncc1` [Example A67, N-[(3R,4R)-4-[3-chloro-4-(2-hydroxybenzoyl)benzamido]pyrrolidin-3-yl]pyridine-4-carboxamide], for which, in test [1], the activity at 0.078 µM turned out to be 94.2%, the activity at 0.156 µM turned out to be 97.9%, the activity at 0.312 µM is 104% and the activity at 0.625 µM turned out to be 104%. Moreover, in test [1], the activity at 1.25 µM amounted to 112%, the activity at 2.5 µM came out at 106%, the activity at 5 µM worked out at 108% and the activity at 10 µM is 120%. Further, in test [1], the activity at 20 µM was 128%. This compound also yielded an EC50 in test [2] of over 20 µM.
With `COc1cc(C(=O)c2ccccc2O)ccc1C(=O)N[C@@H]1CNC[C@H]1NC(=O)c1ccnc(N)n1` [Example A68, 2-amino-N-[(3R,4R)-4-[4-(2-hydroxybenzoyl)-2-methoxybenzamido]pyrrolidin-3-yl]pyrimidine-4-carboxamide], in test [1], the activity at 0.078 µM is 101%, the activity at 0.156 µM came to 95.7%, the activity at 0.312 µM was found to be 94.8% and the activity at 0.625 µM came out at 91.2%. Moreover, in test [1], the activity at 1.25 µM stood at 102%, the activity at 2.5 µM was found to be 101%, the activity at 5 µM came to 96.8% and the activity at 10 µM stood at 102%. In addition, in test [1], the activity at 20 µM worked out at 94.3%. Also, in test [2], the EC50 stood at 1.24 µM.
In the case of `COc1cc(C(=O)c2ccccc2O)ccc1C(=O)N[C@@H]1CNC[C@H]1NC(=O)c1ccncc1` [Example A69, N-[(3R,4R)-4-[4-(2-hydroxybenzoyl)-2-methoxybenzamido]pyrrolidin-3-yl]pyridine-4-carboxamide], in test [1], the activity at 0.078 µM turned out to be 94.3%, the activity at 0.156 µM came out at 96.2%, the activity at 0.312 µM came to 96% and the activity at 0.625 µM was 107%. In test [1], the activity at 1.25 µM amounted to 110%, the activity at 2.5 µM was 112%, the activity at 5 µM was 112% and the activity at 10 µM is 119%. Further, in test [1], the activity at 20 µM came out at 117%. A half-maximal response in test [2] (EC50) required 0.401 µM.
As for `Nc1nccc(C(=O)N[C@@H]2CNC[C@H]2NC(=O)c2ccc(C(=O)c3cccc(Cl)c3O)cc2)n1` [Example A70, 2-amino-N-[(3R,4R)-4-[4-(3-chloro-2-hydroxybenzoyl)benzamido]pyrrolidin-3-yl]pyrimidine-4-carboxamide], in test [1], the activity at 0.078 µM was 103%, the activity at 0.156 µM was found to be 107%, the activity at 0.312 µM was found to be 115% and the activity at 0.625 µM stood at 122%. In addition, in test [1], the activity at 1.25 µM stood at 123%, the activity at 2.5 µM turned out to be 117%, the activity at 5 µM came out at 122% and the activity at 10 µM was 135%. Also, the activity at 20 µM in test [1] turned out to be 145%. Moreover, the EC50 in test [2] is over 20 µM.
For the compound `O=C(N[C@@H]1CNC[C@H]1NC(=O)c1ccc(C(=O)c2cccc(Cl)c2O)cc1)c1ccncc1` [Example A71, N-[(3R,4R)-4-[4-(3-chloro-2-hydroxybenzoyl)benzamido]pyrrolidin-3-yl]pyridine-4-carboxamide], in test [1], the activity at 0.078 µM turned out to be 94.8%, the activity at 0.156 µM stood at 99%, the activity at 0.312 µM worked out at 105% and the activity at 0.625 µM was determined as 109%. In addition, in test [1], the activity at 1.25 µM turned out to be 102%, the activity at 2.5 µM was 109%, the activity at 5 µM came to 119% and the activity at 10 µM worked out at 117%. In test [1], the activity at 20 µM came out at 124%. The EC50 in test [2] came out at 2.15 µM.
As to `COc1cccc(C(=O)c2ccc(C(=O)N[C@@H]3CNC[C@H]3NC(=O)c3ccnc(N)n3)cc2)c1O` [Example A72, 2-amino-N-[(3R,4R)-4-[4-(2-hydroxy-3-methoxybenzoyl)benzamido]pyrrolidin-3-yl]pyrimidine-4-carboxamide], in test [1], the activity at 0.078 µM came out at 96.4%, the activity at 0.156 µM turned out to be 94%, the activity at 0.312 µM stood at 97.7% and the activity at 0.625 µM was 108%. Also, in test [1], the activity at 1.25 µM came to 106%, the activity at 2.5 µM turned out to be 105%, the activity at 5 µM was determined as 113% and the activity at 10 µM is 127%. Further, in test [1], the activity at 20 µM came out at 157%. This compound also had an EC50 in test [2] of over 20 µM.
For the compound `COc1cccc(C(=O)c2ccc(C(=O)N[C@@H]3CNC[C@H]3NC(=O)c3ccncc3)cc2)c1O` [Example A73, N-[(3R,4R)-4-[4-(2-hydroxy-3-methoxybenzoyl)benzamido]pyrrolidin-3-yl]pyridine-4-carboxamide], in test [1], the activity at 0.078 µM turned out to be 96.7%, the activity at 0.156 µM was 110%, the activity at 0.312 µM turned out to be 102% and the activity at 0.625 µM worked out at 105%. For the same compound, in test [1], the activity at 1.25 µM was found to be 125%, the activity at 2.5 µM came to 117%, the activity at 5 µM came to 121% and the activity at 10 µM came to 136%. Further, the activity at 20 µM in test [1] was determined as 159%. Moreover, the EC50 in test [2] was over 20 µM.
For `Cc1cccc(C(=O)c2ccc(C(=O)N[C@@H]3CNC[C@H]3NC(=O)c3ccnc(N)n3)cc2)c1O` [Example A74, 2-amino-N-[(3R,4R)-4-[4-(2-hydroxy-3-methylbenzoyl)benzamido]pyrrolidin-3-yl]pyrimidine-4-carboxamide], in test [1], the activity at 0.078 µM was 101%, the activity at 0.156 µM amounted to 103%, the activity at 0.312 µM stood at 103% and the activity at 0.625 µM came to 106%. Also, in test [1], the activity at 1.25 µM is 105%, the activity at 2.5 µM was found to be 119%, the activity at 5 µM amounted to 121% and the activity at 10 µM was found to be 137%. The same compound showed an EC50 in test [2] of 4.5 µM.
Consider `Cc1cccc(C(=O)c2ccc(C(=O)N[C@@H]3CNC[C@H]3NC(=O)c3ccncc3)cc2)c1O` [Example A75, N-[(3R,4R)-4-[4-(2-hydroxy-3-methylbenzoyl)benzamido]pyrrolidin-3-yl]pyridine-4-carboxamide], for which, in test [1], the activity at 0.078 µM turned out to be 97.1%, the activity at 0.156 µM turned out to be 93.7%, the activity at 0.312 µM worked out at 105% and the activity at 0.625 µM stood at 106%. Moreover, in test [1], the activity at 1.25 µM stood at 116%, the activity at 2.5 µM was determined as 119%, the activity at 5 µM was determined as 119% and the activity at 10 µM stood at 146%. For the same compound, the activity at 20 µM in test [1] stood at 140%. The EC50 in test [2] came out at 6.57 µM.

Usually EC50 stands for the concentration giving half of the maximal effect. Read a high EC50 as weaker potency.
